Experimental findings from paper PMC8000495, “A New Anti-Estrogen Discovery Platform Identifies FDA-Approved Imidazole Anti-Fungal Drugs as Bioactive Compounds against ERα Expressing Breast Cancer Cells” (International Journal of Molecular Sciences, 2021) are described below.

The target in assay [1] is T1, estrogen receptor α (ERα) (Homo sapiens, UniProt P03372).
T1 construct: gene ESR1
T1 sequence (P03372 1-595): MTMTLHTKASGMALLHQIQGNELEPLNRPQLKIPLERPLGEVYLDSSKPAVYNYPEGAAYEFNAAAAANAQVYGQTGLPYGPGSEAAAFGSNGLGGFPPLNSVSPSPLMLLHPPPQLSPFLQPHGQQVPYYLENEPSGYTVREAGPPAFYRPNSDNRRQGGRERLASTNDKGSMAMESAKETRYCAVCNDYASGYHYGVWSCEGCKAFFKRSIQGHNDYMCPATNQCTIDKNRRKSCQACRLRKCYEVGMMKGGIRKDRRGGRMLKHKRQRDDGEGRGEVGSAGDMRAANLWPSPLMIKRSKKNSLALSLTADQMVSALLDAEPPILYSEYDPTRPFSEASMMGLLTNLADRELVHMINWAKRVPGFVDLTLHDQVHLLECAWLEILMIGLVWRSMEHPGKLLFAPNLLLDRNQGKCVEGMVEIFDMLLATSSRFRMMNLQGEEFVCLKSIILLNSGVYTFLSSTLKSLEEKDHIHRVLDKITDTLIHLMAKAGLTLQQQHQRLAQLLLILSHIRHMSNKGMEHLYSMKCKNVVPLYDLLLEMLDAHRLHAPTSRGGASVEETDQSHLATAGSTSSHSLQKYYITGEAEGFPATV
Briefly: fluorescence polarization competitive binding, dose-response. A general note: Fluorescence polarisation rises when a labelled molecule tumbles more slowly, as on binding a larger partner.

For assay [2], the target named is T1, estrogen receptor α (ERα).

In general, IC50 refers to the concentration that gives 50% inhibition. A higher IC50 goes with lower potency. `Clc1ccc(C(Cn2ccnc2)OCc2ccc(Sc3ccccc3)cc2)c(Cl)c1` (centres unmarked) [Fenti, fenticonazole]: in assay [1], the IC50 is around 14 µM.

As to `Oc1ccc(/C=C/c2cc(O)cc(O)c2)cc1` [resveratrol], the “fluorescence polarization competitive binding screen, single dose 10^-4 M, Z* >” value in assay [2] is reported as “we found well-known receptor ligands (e.g., estriol, resveratrol, genistein)”.
